Laboratory results published in publication PMC11211886 (Frontiers in Pharmacology, 2024).
Read-outs that look alike come from different tables or passages of the source.

What was measured:
[1] = Single-dose PK in SD rats (IV/PO); design: species or system SD rat; settings: in vivo
Excerpt: For the single-dose PK study, twenty-four rats were divided into four groups, with six rats (male: female = 1:1) in each group.

plasma proteins = assay: Plasma protein binding (RED), rat plasma; assay type: in vitro ADME
Procedure: The plate containing plasma and buffer was equilibrated for 6 h in a 37°C water shaking bath. After incubation, aliquots of buffer and plasma (20 µL) on both sides were collected and precipitated using organic solvents. […] The post-dialysis recovery of amdizalisib was also measured.

[2] = Metabolic stability in mouse liver microsomes; assay type: in vitro ADME
Procedure: FMO was deactivated by heating liver microsomes at 45°C for 5 min. […] (1) metabolic clearance is the major mechanism of clearance; (2) liver is the major organ of clearance; and (3) oxidation is the major metabolic pathway. CLint,in vitro=k / Cmicrosomes , Scaled CLint,in vivo=CLint,in vitro×microsomes yield×liver weight, where Cmicrosomes means the experimental protein concentration (0.5 mg/mL) in the incubation system.

[3] = Cytotoxicity on human hepatocytes in induction assay; assay type: cell-based; settings: 20 μM, CYP2C induction evaluation (data not shown)
Procedure: […] […] […] Enzyme activity for each CYP isoform was reported as a fold change over vehicle control and the percent of positive control (detailed calculation in Supplementary 1.1). Hepatocytes were harvested with a lysis buffer from RNeasy 96 Kit (Qiagen Inc., Germantown, MD, USA) to isolate RNA, which was analyzed by real-time quantitative polymerase chain reaction (RT-PCR). […] Emax (the maximal observed induction) and EC50 (the concentration that supports half-maximal induction) were estimated by non-linear regression of fold increase in CYP mRNA expression versus concentration plots.

OAT3 = molecular target: T1, OAT3 (Homo sapiens, UniProt Q8TCC7); assay: OAT3 inhibition, estrone 3-sulfate uptake in transfected HEK293 cells
T1 sequence (Q8TCC7 1-542): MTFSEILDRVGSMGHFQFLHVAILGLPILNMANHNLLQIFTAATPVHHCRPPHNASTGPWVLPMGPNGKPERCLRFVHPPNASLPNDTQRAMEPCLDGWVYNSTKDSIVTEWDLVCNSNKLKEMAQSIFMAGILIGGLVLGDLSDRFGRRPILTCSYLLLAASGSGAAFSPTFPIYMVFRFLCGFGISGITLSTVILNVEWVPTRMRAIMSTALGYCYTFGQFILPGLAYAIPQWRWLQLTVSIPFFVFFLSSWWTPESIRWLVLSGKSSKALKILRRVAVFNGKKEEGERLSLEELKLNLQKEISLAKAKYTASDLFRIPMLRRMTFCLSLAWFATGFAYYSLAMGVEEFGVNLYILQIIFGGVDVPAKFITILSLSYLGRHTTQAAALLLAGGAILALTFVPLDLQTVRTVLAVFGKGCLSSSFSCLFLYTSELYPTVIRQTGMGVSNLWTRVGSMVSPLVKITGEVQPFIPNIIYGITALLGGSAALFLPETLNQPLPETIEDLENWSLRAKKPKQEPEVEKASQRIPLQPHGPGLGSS
Procedure: The pre-incubation solutions were removed, and incubation solutions containing the inhibitors and probe substrates (or transport buffer containing an equal volume of vehicle control and probe substrates) were added and incubated at 37°C for 2 min (5 min for OATP1B3). The probe substrate for OAT1 was 4-aminohippuric acid (10 μM), for OAT3 was estrone 3-sulfate (10 μM), for OCT2 was metformin (100 μM), for OATP1B1 was β-estradiol 17-(β-D-glucuronide) (5 μM), for OATP1B3 was β-estradiol 17-(β-D-glucuronide) (10 μM), and for MATE1 and MATE2-K was tetraethylammonium (10 μM). After incubation, cells were washed three times with ice-cold transport buffer (25 mM HEPES, pH 7.4, pH 8.0 for overexpressing MATE1 and MATE2-K HEK293 cells) and lysed in distilled water. The concentrations of probe substrates were determined by LC-MS/MS, and a BCA Kit (Solarbio ®Life Sciences, Beijing, China) was used to determine the protein content in the cell lysate.
where C is the concentration of the drug in the cell lysate (nM), P is the protein concentration of the cell lysate (mg/mL), and T is the incubation time (minute). Uptake ratetest compound is the uptake rate of the substrate in the presence of the test compound. Uptake ratevehicle control is the uptake rate of the substrate in the presence of the vehicle control. Uptake ratepassive is the uptake rate of the substrate in the presence of the positive inhibitor at the top test concentration.

[4] = design: method as in Cao et al., 2023; settings: single oral 30 mg, high-fat diet, ref Cao et al., 2023, cited from earlier work
[5] = humans, RP2D 30 mg, phase Ib (n = 90); ref European Society for Medical Oncology, 2021; cited from earlier work
[6] = both sexes, SD, rat, iv, 5 mg/kg
[7] = both sexes, SD, rat, po, 1 mg/kg
[8] = both sexes, SD, rat, po, 5 mg/kg
[9] = both sexes, SD, rat, po, 25 mg/kg

C[C@H](Nc1ncnc(N)c1C#N)c1cc2ncc(Cl)n2nc1-c1ccccc1 [Amdizalisib]
AUC(0-inf) [1, 6]: 13900 ng·h/mL | AUC(0-t) [1, 6]: 13900 ng·h/mL | MRT [1, 6]: 4.6 ± 2.85 h | Vd [1, 6]: 1.68 ± 0.153 L/kg | clearance [1, 6]: 9.12 ± 6.31 mL/min/kg | AUC(0-inf) [1, 7]: 1320 ng·h/mL | AUC(0-t) [1, 7]: 1140 ng·h/mL | Cmax [1, 7]: 115 ± 79.1 ng/mL | MRT [1, 7]: 7.9 ± 5.28 h | AUC(0-inf) [1, 8]: 6130 ng·h/mL | AUC(0-t) [1, 8]: 6040 ng·h/mL | Cmax [1, 8]: 622 ± 257 ng/mL | MRT [1, 8]: 7.84 ± 5.51 h | Tmax [1, 8]: 1.5 ± 0.548 h | half-life [1, 8]: 5.11 ± 4 h | AUC(0-inf) [1, 9]: 52600 ng·h/mL | AUC(0-t) [1, 9]: 52400 ng·h/mL | Cmax [1, 9]: 3350 ng/mL | MRT [1, 9]: 11 ± 6.61 h | half-life [1, 9]: 5.62 ± 2.86 h | half-life ([1]; both sexes, SD rat, fasted, IV 5 mg/kg, read-out: t1/2 (converted)): 3.61 ± 2.01 h | Tmax ([1]; both sexes, SD rat, fasted, PO 1 mg/kg, read-out: Tmax): 2.67 ± 1.75 h | half-life ([1]; both sexes, SD rat, fasted, PO 1 mg/kg, read-out: t1/2 (converted)): 4.94 ± 3.35 h | Tmax ([1]; both sexes, SD rat, fasted, PO 25 mg/kg, read-out: Tmax): 4.17 ± 2.23 h | CL as % of the hepatic blood flow ([1]; both, Sprague-Dawley, rat, iv): 16.6% | Binding fraction to plasma proteins, Rat (plasma proteins; 0.1 µM): 87.2 ± 1.72% | Binding fraction to plasma proteins, Rat (plasma proteins; 1 µM): 90.2 ± 0.65% | Binding fraction to plasma proteins, Rat (plasma proteins; 20 µM): 89.9 ± 0.37% | CLint scaled at 1 µM ([2]; female, mouse, microsomes, pH 7.4, Predicted CL int, iv vivo): 52.8 mL/min/kg | half-life at 1 µM ([2]; female, mouse, microsomes, pH 7.4, in vitro t1/2): 1.7 h | CLint scaled at 1 µM ([2]; male, mouse, microsomes, pH 7.4, Predicted CL int, iv vivo): 50.4 mL/min/kg | half-life at 1 µM ([2]; male, mouse, microsomes, pH 7.4, in vitro t1/2): 1.8 h | half-life at 1 µM ([2]; pH 7.4, female mouse liver microsomes, FMO deactivation, read-out: in vitro t1/2): 1.72 h | CLint scaled at 1 µM ([2]; pH 7.4, female mouse liver microsomes, normal, read-out: Predicted CL int, iv vivo): 53.6 mL/min/kg | cytotoxic effect on cell viability [3]: exhibited cytotoxicity against human hepatocytes in one donor | IC50 (OAT3): 41.1 µM | Percentage transported (OAT3; OAT3, compound 0.3 μM): 96.4% | Uptake rate (OAT3; OAT3, compound 0.3 μM): 101±1.22 pmol/mg protein/min | Percentage transported (OAT3; OAT3, compound 1 μM): 103% | Uptake rate (OAT3; OAT3, compound 1 μM): 106±2.62 pmol/mg protein/min | Percentage transported (OAT3; OAT3, compound 3 μM): 97.5% | Uptake rate (OAT3; OAT3, compound 3 μM): 102±3.76 pmol/mg protein/min | Percentage transported (OAT3; OAT3, compound 10 μM): 101% | Uptake rate (OAT3; OAT3, compound 10 μM): 105±1.14 pmol/mg protein/min | Percentage transported (OAT3; OAT3, compound 30 μM): 52.3% | Uptake rate (OAT3; OAT3, compound 30 μM): 63.6±3.38 pmol/mg protein/min | Percentage transported (OAT3; OAT3, compound 100 μM): 27.3% | Uptake rate (OAT3; OAT3, compound 100 μM): 42.5±2.15 pmol/mg protein/min | inhibition at 2 min, 0.3 µM (OAT3; human, pH 7.4): 3.57% | inhibition at 2 min, 1 µM (OAT3; human, pH 7.4): -2.52% | inhibition at 2 min, 3 µM (OAT3; human, pH 7.4): 2.54% | inhibition at 2 min, 10 µM (OAT3; human, pH 7.4): -0.883% | inhibition at 2 min, 30 µM (OAT3; human, pH 7.4): 47.7% | inhibition at 2 min, 100 µM (OAT3; human, pH 7.4): 72.7% | calculated R value (OAT3) (OAT3; renal OATs): < 1.1 | median Tmax ([4]; Chinese healthy volunteers): 4 h | effect of food on extent of oral absorption (AUC) [4]: no significant effect | reduction of geometric mean of Cmax after food intake [4]: 36% | Grade 3 diarrhea [5]: 2.2% | colitis [5]: no colitis cases were reported | serious GI toxicity [5]: less than 5%
